The values below come from patent publication US8093288B2, “Genipin derivatives and uses thereof” (Beth Israel Deaconess Medical Center, priority 2003, dated 2012).

The test system of assay [1] is kidney mitochondria of UCP2 knockout mice. Kind of assay: Proton leak titration in isolated kidney mitochondria of UCP2 knockout mice with superoxide-generating system. It is filed as biochemical. Particulars: 50 μM genipin with 50 mM xanthine and 0.2 mU/3.5 mL xanthine oxidase, FIG. 3. How it is done: FIG. 3 is a graph showing the effect of genipin on superoxide-activated, UCP2-dependent proton leak in isolated kidney mitochondria of UCP2 knockout mice. Proton leak titration was performed in the presence of a superoxide-generating system (xanthine plus xanthine oxidase) essentially as described (Echtay et al. 2002, Nature 415, 96-99). Graphs show the rate of proton leak as a function of its driving force, mitochondrial membrane potential. ♦, control; ▪, xanthine (50 mM) plus xanthine oxidase (0.2mU/3.5 ml). Δ, xanthine/xanthine oxidase plus 50 μM genipin. Mitochondria were incubated with genipin in the oxygen electrode for 5 minutes before xanthine oxidase was added (to initiate the generation of superoxide). Western-blot analysis confirmed that there was no UCP2 protein in mitochondria from UCP2 knockout mice. Data are means +/−S.E.M. of four independent experiments.
Wildtype and UCP2 knockout mice were used for isolation of kidney mitochondria. Fresh tissues were minced in ice-cold STE buffer (250 mM sucrose, 5 mM Tris, 2 mM EGTA, pH 7.4 at 4° C.), and disrupted in a Dounce homogenizer. Cell debris was removed by centrifugation of the homogenate at 500×g for 3 min. The supernatant was centrifuged at 10,000×g for 8 min., and the mitochondrial pellet was resuspended in ice-cold STE buffer. Mitochondria were subjected to another cycle of centrifugation at 750 and 10,000×g. […]

Assay [2] relates to high fat diet-fed UCP2 knockout mice. As to the kind of experiment: Blood glucose and insulin after genipin injection in high fat diet-fed UCP2 knockout mice. It is filed as in vivo. Particulars: high fat diet 24 weeks, 20 hours fasting, 300 μg genipin injected, thirty minutes after injection. How it is done: Wildtype and UCP2 knockout mice were placed on a high fat diet obtained from Research Diets Inc., New Brunswick, N.J. (cat. no. D12331, HFD). The fat source was coconut oil and comprised 58% of the total calories. The mice remained on the high fat diet for 24 weeks. After the 24 weeks, both the wildtype and the UCP2 knockout mice were obese (about 50-60 g). After 20 hours of fasting, the blood glucose and insulin levels of the mice were measured, then the mice were injected with 300 μg of genipin. Thirty minutes after injection the blood glucose and insulin levels of the mice were measured again. Blood glucose levels were assessed using a glucometer (One touch, Lifescan, Milpitas, Calif.). Serum insulin concentrations were assessed using mouse insulin as a standard (Rat Insulin ELISA Kit. cat. #INSKR020 Crystal Chem. Inc., Chicago, Ill.). […] A comparison of the effect of genipin on the blood glucose levels and insulin levels in wildtype and UCP2 knockout mice can be seen in FIGS. 7 and 10, respectively.

The test system of assay [3] is UCP2 KO mice. Kind of assay: Serum insulin in vivo after genipin injection in UCP2 KO mice. Particulars: genipin 10 mg/kg injected, FIGS. 13A, 13B. As to the method: UCP2-deficient mice have increased serum insulin levels. Genipin inhibits UCP2 activity, and thus should stimulate insulin secretion acutely in vivo. In the present study, the effect of genipin on insulin secretion in vivo was assessed. WT and UCP2 KO mice were fed a chow diet (FIG. 13A), or placed on a high fat diet (HFD) (FIG. 13B) (#D12331, obtained from Research Diets Inc., New Brunswick, N.J.). The fat source was coconut oil and comprised 58% of the total calories. The mice remained on the HFD for 24 weeks. Both WT and KO mice were obese (50-60 g). ob/ob mice (FIG. 13C) were obtained from The Jackson Laboratory. After 6 hours (FIG. 13A) or 20 hours (FIGS. 13B and 13C) of fasting, genipin (10 mg/kg (FIGS. 13A and 13B), or 20 mg/kg (FIG. 13C)) was injected into the mice. Serum insulin levels were measured before and after administration of genipin as indicated.

Regarding `COC(=O)C1=CO[C@@H](O)[C@@H]2C(CO)=CC[C@H]12` [genipin], the “rate of proton leak as a function of mitochondrial membrane potential” value in assay [1] is on record as “proton leak occurred at approximately the same membrane potential as that observed for kidney mitochondria from UCP2 knockout mice exposed to the superoxide-generating system alone”. The blood glucose levels result in assay [2] (FIG. 6) is listed as “little effect”. Also, the insulin levels entry in assay [2] (FIG. 9) is listed as “little effect”. Also, in assay [3], the serum insulin levels entry is on record as “no effect on insulin levels”.
